Blank lines part the entries; values can stand above or below the molecule they belong to.
Key:
recombinant PHGDH = recombinant PHGDH (Homo sapiens (Human), UniProt O43175); assay: In vitro enzymatic activity of PHGDH by fluorescence kinetic method; format: biochemical; details: recombinant PHGDH 30 ng/μL, NADH fluorescence at 456 nm
Experimental: The activity of recombinant PHGDH was measured by monitoring the reduced nicotinamideadenine dinucleotide (NADH) to nicotinamideadenine dinucleotide (NAD^+) change in fluorescence emission at 456 nm. PHGDH (final concentration of 30 ng/μL) was first pre-incubated with enzyme samples in the assay buffer (25 mM HEPES, pH 7.1, 400 mM KCl, 5 μM phosphopyridoxa (PLP), 0.5 mM α-ketoglutarate, 150 μM NADH, PSAT1) for 10 min in 96-well plate, then 10 μL of DMSO (control) or a small molecule of DMSO solution was added, shaken at 550 rpm for 5 minutes at 25° C. and balanced for 5 minutes. […] The reaction was started by adding L-phospho-O-serine (Pser) solution. The UV-visible microplate reader was used to monitor the change of NADH consumption at 456 nm with time. Protein activity was assessed by using an initial rate of reaction within 30 s, at which time NADH consumption was linear over time. The enzymatic inhibition ability of sixty-three compounds was first measured at 50 μM, compounds with percentage inhibition of PHGDH larger than 50% were selected for further studies, and IC50 values were obtained (Table 3).

colon cancer cell DLD-1 = assay: MTT cell viability assay, DLD-1; format: cell-based; details: Homo sapiens, 72 h, colon cancer cells
Excerpt: (§1) The biological activities of the compounds at the cellular level were investigated. A series of cancer cells and normal mammary epithelial cells were selected, and the experimental method of MTT (3-(4,5)-dimethylthiahiazo (-z-y 1)-3,5-di-phenytetrazoliumromide) was used.
(§2) The specific method: firstly, PHGDH-sensitive breast cancer cells MDA-MB-468 (5,000 cells/well) and HCC70 (5,000 cells/well), PHGDH-insensitive breast cancer cells MCF-7 (3,000 cells/well), MDA-MB-231 (2,000 cells/well) and ZR-75-1 (4,000 cells/well), colon cancer cell DLD-1 (2,000 cells/well) and normal breast epithelial cells MCF-10A (3,000 cells/well) in the exponential growth were plated into 96-well culture plates and treated in triplicate with or without various concentrations of activated compounds from the enzymatic bioassays. They adhered to the wall over night. The compounds were added from stock solutions in DMSO and the final concentration of DMSO in the medium was 0.2%. After 72 h, 20 μL 5 mg/ml MTT was added to each well and incubated for at least 4 h. […] The number of viable cells was assessed by spectrophotometry at 570 nm, and calculated as the percentage of absorbance of treated cells relative to that of solvent controls. Results were expressed as a percentage of viable cells and the EC50 was calculated by using the Hill equation.

[1] = test system: PHGDH-sensitive breast cancer cells MDA-MB-468; assay: MTT cell viability assay, MDA-MB-468; format: cell-based; details: Homo sapiens, 72 h
Excerpt: as §1, §2

[2] = test system: PHGDH-sensitive breast cancer cells HCC70; assay: MTT cell viability assay, HCC70; format: cell-based; details: Homo sapiens, 72 h
Excerpt: as §1, §2

[3] = test system: PHGDH-insensitive breast cancer cells MDA-MB-231; assay: MTT cell viability assay, MDA-MB-231; format: cell-based; details: Homo sapiens, 72 h
Excerpt: as §1, §2

[4] = test system: PHGDH-insensitive breast cancer cells ZR-75-1; assay: MTT cell viability assay, ZR-75-1; format: cell-based; details: Homo sapiens, 72 h
Excerpt: as §1, §2

[5] = test system: PHGDH-insensitive breast cancer cells MCF-7; assay: MTT cell viability assay, MCF-7; format: cell-based; details: Homo sapiens, MCF7, 72 h
Excerpt: as §1, §2

[6] = test system: normal breast epithelial cells MCF-10A; assay: MTT cell viability assay, MCF-10A; format: cell-based; details: Homo sapiens, 72 h
Excerpt: as §1, §2

MDA-MB-468 Cells = assay: Cell cycle analysis by PI staining and flow cytometry; format: cell-based; details: MDA-MB-468, 24 h, various concentrations
Experimental: MDA-MB-468 Cells (300,000 cells/well) in exponential growth were plated into 6-well culture plates and then treated in triplicate with or without various concentrations of PKUMDL-WL-2101. After 24 h, cells were harvested by trypsinization and centrifuged, and then fixed in 70% ice-cold ethanol, washed twice with 1×PBS, and kept at 4° C. overnight. The fixed cells were afterwards washed in 1×PBS and resuspended in 1×PBS containing 0.5% triton-x-100, 50 μg/ml Prodiumiodide (PI) and 50 μg/ml DNase-free RNase. The cell suspension was incubated in the dark for 30 min at 37° C. and analyzed by using a BD FACSCanto™ cytometer.

MDA-MB-468 xenografts = assay: Mouse xenograft model, compounds injected separately; format: in vivo; details: 20 mg/kg/day IP; for inhibitory effects on MDA-MB-468 xenografts (tumor volume): after 30 days of drug delivery, vs vehicle; for tolerability (body weight): over the course of the experiments
Experimental: All animal experiments were performed in compliance with guidelines of the Animal Welfare Act and the guide for the care and use of laboratory animals following protocols approved by the Institutional Animals Care and Use Committee (IACUC). […] The tumor volumes were measured every two days and calculated by using the following formula width^2 (mm)×length (mm)×0.5.

Chain of recombinant PHGDH (O43175 whole entry): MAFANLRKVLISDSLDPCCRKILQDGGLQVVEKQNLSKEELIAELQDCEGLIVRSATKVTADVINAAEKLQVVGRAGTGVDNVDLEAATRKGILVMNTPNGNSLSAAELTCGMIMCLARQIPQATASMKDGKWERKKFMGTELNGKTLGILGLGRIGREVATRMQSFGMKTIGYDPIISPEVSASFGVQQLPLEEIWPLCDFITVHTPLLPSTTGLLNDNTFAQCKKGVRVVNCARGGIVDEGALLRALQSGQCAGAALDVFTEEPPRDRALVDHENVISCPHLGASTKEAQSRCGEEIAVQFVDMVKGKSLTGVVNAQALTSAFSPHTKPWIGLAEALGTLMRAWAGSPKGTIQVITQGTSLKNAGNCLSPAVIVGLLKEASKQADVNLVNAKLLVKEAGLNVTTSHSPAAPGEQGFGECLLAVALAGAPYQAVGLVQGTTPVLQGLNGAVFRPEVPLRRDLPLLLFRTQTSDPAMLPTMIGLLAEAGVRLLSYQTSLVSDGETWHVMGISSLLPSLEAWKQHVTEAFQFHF

IC50 (recombinant PHGDH): 30.3 ± 4.5 µM
SMILES: CCNC(=S)N/N=C/c1ccc(-c2ccc(O)cc2)o1 [PKUMDL-WL-2229, (E)-N-ethyl-2-((5-(4-hydroxyphenyl)furan-2-yl)methylene) hydrazinecarbothioamide]

IC50 (recombinant PHGDH): 37 ± 2.8 µM
SMILES: CCNC(=S)N/N=C/c1ccc(-c2ccc([N+](=O)[O-])cc2)o1 [PKUMDL-WL-2228, (E)-N-ethyl-2-((5-(4-nitrophenyl)furan-2-yl)methylene) hydrazinecarbothioamide]

IC50 (recombinant PHGDH): 8.9 ± 1.8 µM
SMILES: COC(=O)c1ccc(-c2ccc(/C=N/NC(=S)NN)o2)cc1 [PKUMDL-WL-2220, (E)-Methyl 4-(5-((2-(hydrazinecarbonothioyl) hydrazono)methyl)furan-2-yl) benzoate]

IC50 (recombinant PHGDH): 29.8 ± 9.4 µM
SMILES: COC(=O)c1ccc(-c2ccc(/C=N/NC(=S)Nc3ccc([N+](=O)[O-])cc3)o2)cc1 [PKUMDL-WL-2212, (E)-Methyl 4-(5-((2-((4-nitrophenyl)carbamothioyl) hydrazono)methyl)furan-2-yl) benzoate]

IC50 (recombinant PHGDH): 36.1 ± 4.2 µM
SMILES: O=C(N/N=C/c1cc([N+](=O)[O-])ccc1O)c1ccc(C(F)(F)F)cc1 [PKUMDL-WL-2128]

IC50 (recombinant PHGDH): 38.9 ± 1.2 µM
SMILES: NNC(=S)N/N=C/c1ccc(-c2ccc(S(N)(=O)=O)cc2)o1 [PKUMDL-WL-2225, (E)-4-(5-((2-(hydrazinecarbonothioyl) hydrazono)methyl)furan-2-yl) benzenesulfonamide]

SMILES: CCNC(=S)N/N=C\c1ccc(-c2ccc(C(=O)O)c(Cl)c2)o1 [PKUMDL-WL-2201, (Z)-2-chloro-4-(5-((2-(ethylcarbamothioyl) hydrazono)methyl)furan-2-yl) benzoic acid]
IC50 (recombinant PHGDH): 35.7 ± 8.6 µM | EC50 (colon cancer cell DLD-1): 167 µM | EC50 [1]: 6.9 µM | EC50 [2]: 10 µM | EC50 [3]: > 200 µM | EC50 [4]: 125 µM | EC50 [5]: > 200 µM | EC50 [6]: 64.7 µM | effect on cell cycle (MDA-MB-468 Cells): arrested the cell cycle at the G0/G1-phase in a dose-dependent manner | inhibitory effects on MDA-MB-468 xenografts (tumor volume) (MDA-MB-468 xenografts): substantial inhibitory effects | tolerability (body weight) (MDA-MB-468 xenografts): maintain normal body weight

IC50 (recombinant PHGDH): 16.7 ± 1.6 µM
SMILES: NNC(=S)N/N=C/c1ccc(-c2ccc(C(=O)O)cc2)o1 [PKUMDL-WL-2222, (E)-4-(5-((2-(hydrazinecarbonothioyl) hydrazono)methyl)furan-2-yl) benzoic acid]

IC50 (recombinant PHGDH): 35.5 ± 1.1 µM
SMILES: CCNC(=S)N/N=C/c1ccc(-c2ccc(C(=O)O)cc2)o1 [PKUMDL-WL-2226, (E)-4-(5-((2-(ethylcarbamothioyl) hydrazono)methyl)furan-2-yl) benzoic acid]

SMILES: O=C(N/N=C/c1cc([N+](=O)[O-])ccc1O)c1ccc(O)cc1O [PKUMDL-WL-2101, (E)-2,4-dihydroxy-N′-(2-hydroxy-5-nitrobenzylidene)benzohydrazide]
IC50 (recombinant PHGDH): 34.8 ± 3.6 µM | EC50 (colon cancer cell DLD-1): 18.3 µM | EC50 [1]: 7.7 µM | EC50 [2]: 10.8 µM | EC50 [3]: 27.7 µM | EC50 [4]: 83.4 µM | EC50 [5]: 139 µM | EC50 [6]: 45.8 µM | effect on cell cycle (MDA-MB-468 Cells): arrested the cell cycle at the G0/G1-phase in a dose-dependent manner | inhibitory effects on MDA-MB-468 xenografts (tumor volume) (MDA-MB-468 xenografts): substantial inhibitory effects | tolerability (body weight) (MDA-MB-468 xenografts): maintain normal body weight
